Experimental data as given in US20090069430A1, “DIBENZENE DERIVATIVES AS CALCIUM CHANNEL BLOCKERS” (NEUROPHARMA, S.A., priority 2005, published 2009).

Tested on: VDCC
Assay: VDCC inhibition: calcium entry (Fluo-4 fluorescence) after depolarization with 60 mM KCl in SH-SY5Y neuroblastoma cells
Type: cell-based, human
Procedure: This assay is aimed to determine the VDCC blocker activity of compounds; it is performed using SH-SY5Y neuroblastoma cells. SH-SY5Y cells were plated at 5×10^4 cells per well into Black/Clear Bottom 96-well culture plate, 48 hours before treatment. Cells were loaded with Fluo-4, 5 μM and pluronic acid, 0.1%, for 30 min at 37° C., 5% CO2, following a incubation of 15 min at RT in Krebs-HEPES solution. Immediately cells are exposed to the samples for 10 min at different concentrations, depending on potency. After the treatment, calcium entry is measured as fluorescence in a Fluostar Optima plate reader (BMG) in response to depolarization with 60 mM KCl. The excitation wavelength was 485 nm, and that of emission 520 nm.

[1] = compound at 10^−5, 10 min exposure
[2] = compound at 10^−6, 10 min exposure
[3] = compound at 10^−7, 10 min exposure
[4] = compound at 10^−8, 10 min exposure

| SMILES | % of calcium entry inhibition [1] [%] | % of calcium entry inhibition [2] [%] | % of calcium entry inhibition [3] [%] | % of calcium entry inhibition [4] [%] |
| --- | --- | --- | --- | --- |
| COCOc1cc(OC)ccc1C(=O)NCCCOc1ccc(CCNC(=O)c2ccc(OC)cc2OCOC)cc1 [Compound 2] | 93.3 ± 5 | 34.2 ± 1.5 | 29.7 ± 14 | 31.2 ± 9 |
| CCCCCOc1cc(OC)ccc1C(=O)NCCCCCCNC(=O)c1ccc(OC)cc1OCCCCC [Compound 21] | 27 ± 7 | 0 |  |  |
| COCOc1cc(OC)ccc1C(=O)NCCCCCNC(=O)c1ccc(OC)cc1OCOC [Compound 1] | 57.8 ± 16 |  |  |  |
| CCCCOc1cc(OC)ccc1C(=O)NCCCCCCNC(=O)c1ccc(OC)cc1OCCCC [Compound 22] | 24 ± 12 | 0 |  |  |
| COCOc1cc(OC)ccc1C(=O)NCCCOc1c(Br)cc(CCNC(=O)c2ccc(OC)cc2OCOC)cc1Br [Compound 4] |  |  | 6 ± 0 |  |
| COc1ccc(C(=O)NCCCOc2ccc(CCNC(=O)c3ccc(OC)cc3OCC(C)=O)cc2)c(OCC(C)=O)c1 [Compound 11] | 36 ± 3 | 0 |  |  |
| COc1cc(O)c(C(=O)NCCCCCNC(=O)c2cc(Br)c(OC)c(Br)c2O)cc1Br [Compound 6] | 96.6 ± 4 | 48.7 ± 18 | 27.5 ± 5 | 11.8 ± 16 |
| CCC(C)Oc1cc(OC)ccc1C(=O)NCCCCCCNC(=O)c1ccc(OC)cc1OC(C)CC (stereo not shown) [Compound 20] | 91 ± 3 | 59 ± 19 | 0 |  |
| COCCOc1cc(OC)ccc1C(=O)NCCCOc1ccc(CCNC(=O)c2ccc(OC)cc2OCCOC)cc1 [Compound 10] | 79 ± 0.1 | 22 ± 19 | 0 |  |
| COc1cc(O)c(C(=O)NCCCCCNC(=O)c2cc(Br)c(OC)cc2O)cc1Br [Compound 5] |  | 0 |  |  |
| COc1ccc(C(=O)NCCCCCCNC(=O)c2ccc(OC)cc2OC)c(OC)c1 [Compound 14] | 38 ± 6 | 0 |  |  |
| COc1ccc(C(=O)NCCCOc2ccc(CCNC(=O)c3ccc(OC)cc3OCC=C(C)C)cc2)c(OCC=C(C)C)c1 [Compound 17] | 45 ± 12 | 39 ± 8 | 0 |  |
| COc1c(Br)cc(C(=O)NCCCCCNC(=O)c2cc(Br)c(OC)c(Br)c2O)c(O)c1Br [Compound 7] | 90.7 ± 3 | 3.1 ± 0 |  |  |
| COc1ccc(C(=O)NCCCOc2ccc(CCNC(=O)c3ccc(OC)cc3OCC(C)C)cc2)c(OCC(C)C)c1 [Compound 16] | 39 ± 4 | 0 |  |  |
| COc1ccc(C(=O)NCCCOc2ccc(CCNC(=O)c3ccc(OC)cc3OC)cc2)c(OC)c1 [Compound 15] | 91.5 ± 1.5 | 37 ± 5 | 0 |  |
| CCCCOc1cc(OC)ccc1C(=O)NCCCOc1ccc(CCNC(=O)c2ccc(OC)cc2OCCCC)cc1 [Compound 18] | 37 ± 2 | 0 |  |  |
| CCOC(=O)COc1cc(OC)ccc1C(=O)NCCCOc1ccc(CCNC(=O)c2ccc(OC)cc2OCC(=O)OCC)cc1 [Compound 8] | 57 ± 7 | 0 |  |  |
| CCC(C)Oc1cc(OC)ccc1C(=O)NCCCOc1ccc(CCNC(=O)c2ccc(OC)cc2OC(C)CC)cc1 (stereo not shown) [Compound 19] | 75 ± 12 | 69 ± 1 | 0 |  |
| COc1cc(OC)c(C(=O)NCCCCCNC(=O)c2ccc(OC)c(C)c2OC)cc1OC [Compound 13] | 27 ± 2 | 0 |  |  |
| CCCOc1cc(OC)ccc1C(=O)NCCCOc1ccc(CCNC(=O)c2ccc(OC)cc2OCCC)cc1 [Compound 9] | 86 ± 0.5 | 61 ± 0 | 0 |  |
| COc1ccc(C(=O)NCCCCCNC(=O)c2ccc(OC)c(C)c2OC)c(OC)c1C [Compound 12] | 78 ± 2.5 | 0 |  |  |
